Experimental data from patent US9145425B2, “Cephem compound having catechol group” (SHIONOGI & CO., LTD., priority 2010, dated 2015).
Converted amounts (≈) assume the structure as drawn.

Key:
Format in all cases: cell-based
[1] = tested on: Pseudomonas aeruginosa SR24; assay: Minimum Inhibitory Concentration (MIC), agar plate incubation, Japan Society for Chemotherapy standard method; settings: Pseudomonas aeruginosa SR24, no enzyme, ceftazidime sensitive strain, 1000 cfu/spot, sensitive disc medium; for MIC: read-out: Minimum Inhibitory Concentration (MIC)
Protocol: (§1) The antimicrobial activity in vitro of the present compound (I) was determined.
(§2) Measurement of Minimum Inhibitory Concentration (MIC, μg/ml) was conducted according to the standard method of the Japan Society for Chemotherapy and the amount of bacteria for inoculation was 1000 cfu/spot, and sensitive disc medium was used as the test medium, and conducted using agar plate incubation.
(§3) In the tables, the unit of the values of inhibitory activity is μg/ml.

[2] = tested on: Klebsiella pneumoniae ATCC 700603; assay: as above; settings: Klebsiella pneumoniae ATCC 700603, SHV-18, ESBL producer strain, 1000 cfu/spot, sensitive disc medium; for MIC: ATCC700603, read-out: Minimum Inhibitory Concentration (MIC)
Protocol: as §1, §2, §3

[3] = tested on: Acinetobacter baumannii SR24396; assay: as above; settings: Acinetobacter baumannii SR24396, no enzyme, 1000 cfu/spot, sensitive disc medium; for MIC: read-out: Minimum Inhibitory Concentration (MIC)
Protocol: as §1, §2, §3

[4] = tested on: Pseudomonas aeruginosa SR27060; assay: as above; settings: Pseudomonas aeruginosa SR27060, IMP-1, MBL producer strain (carbapenem resistant strain), 1000 cfu/spot, sensitive disc medium; for MIC: read-out: Minimum Inhibitory Concentration (MIC)
Protocol: as §1, §2, §3

[5] = tested on: Stenotrophomonas maltophilia SR21970; assay: Minimum Inhibitory Concentration (MIC), agar plate incubation, CLSI method; settings: Stenotrophomonas maltophilia SR21970, L-1, MBL producer strain (carbapenem resistant strain), 10000 cfu/spot, Mueller-Hinton agar medium; for MIC: read-out: Minimum Inhibitory Concentration (MIC)
Protocol: as §1
Measurement of Minimum Inhibitory Concentration (MIC, μg/ml) was conducted according to the CLSI (Clinical and Laboratory Standards Institute) and the amount of bacteria for inoculation was 10000 cfu/spot, and Mueller-Hinton agar medium was used as the test medium, and conducted using agar plate incubation.
as §3

SMILES	Minimum Inhibitory Concentration (MIC) [1]	Minimum Inhibitory Concentration (MIC) [2]	Minimum Inhibitory Concentration (MIC) [3]	Minimum Inhibitory Concentration (MIC) [4]	Minimum Inhibitory Concentration (MIC) [5]	MIC [1]	MIC [2]	MIC [3]	MIC [4]	MIC [5]
CC(C)(O/N=C(\C(=O)N[C@@H]1C(=O)N2C(C(=O)[O-])=C(C[N+]3(C)CCC4(CCN(C(=O)c5ccc(O)c(O)c5Cl)CC4)CC3)CS[C@H]12)c1csc(N)n1)C(=O)[O-].[Na+] [Compound I-42]	0.063 µg/mL	0.25 µg/mL	0.25 µg/mL	1 µg/mL	1 µg/mL					
Nc1nc(/C(=N/O[C@H](C(=O)[O-])c2ccccc2)C(=O)N[C@@H]2C(=O)N3C(C(=O)[O-])=C(C[N+]4(CCNC(=O)c5ccc(O)c(O)c5Cl)CCCC4)CS[C@H]23)ns1.[Na+] [Compound I-51]	0.063 µg/mL	0.25 µg/mL	0.125 µg/mL	0.5 µg/mL	1 µg/mL					
Nc1nc(/C(=N/O[C@H](C(=O)[O-])c2ccccc2)C(=O)N[C@@H]2C(=O)N3C(C(=O)O)=C(C[N+]45CCC[C@H]4CN(C(=O)c4ccc(O)c(O)c4Cl)CC5)CS[C@H]23)ns1 (some centres unmarked) [Compound I-52]						0.125 µg/mL (≈ 0.154 µM)	0.5 µg/mL (≈ 0.615 µM)	0.125 µg/mL (≈ 0.154 µM)	2 µg/mL (≈ 2.46 µM)	1 µg/mL (≈ 1.23 µM)
Nc1nc(/C(=N/O[C@@H](CC(=O)[O-])C(=O)[O-])C(=O)N[C@@H]2C(=O)N3C(C(=O)[O-])=C(C[N+]4(CCNC(=O)c5ccc(O)c(O)c5Cl)CCCC4)CS[C@H]23)cs1.[Na+].[Na+] [Compound I-59]	0.063 µg/mL	0.25 µg/mL	0.125 µg/mL	0.25 µg/mL	0.5 µg/mL					
C[C@@H](O/N=C(\C(=O)N[C@@H]1C(=O)N2C(C(=O)O)=C(C[N+]34CCC[C@H]3CN(C(=O)c3ccc(O)c(O)c3Cl)CC4)CS[C@H]12)c1csc(N)n1)C(=O)[O-] (some centres unmarked) [Compound I-63]						0.063 µg/mL (≈ 0.084 µM)	1 µg/mL (≈ 1.33 µM)	0.25 µg/mL (≈ 0.333 µM)	0.5 µg/mL (≈ 0.666 µM)	0.5 µg/mL (≈ 0.666 µM)
CC(C)(O/N=C(\C(=O)N[C@@H]1C(=O)N2C(C(=O)[O-])=C(C[N+]3(C)[C@@H]4CC[C@H]3C[C@@H](NC(=O)c3ccc(O)c(O)c3Cl)C4)CS[C@H]12)c1csc(N)n1)C(=O)O (some centres unmarked) [II-2]						0.125 µg/mL (≈ 0.161 µM)	0.5 µg/mL (≈ 0.642 µM)	0.25 µg/mL (≈ 0.321 µM)	1 µg/mL (≈ 1.28 µM)	2 µg/mL (≈ 2.57 µM)
C[N+]1(CC2=C(C(=O)[O-])N3C(=O)[C@@H](NC(=O)/C(=N\O[C@@H](CC(=O)O)C(=O)O)c4csc(N)n4)[C@H]3SC2)[C@@H]2CC[C@H]1C[C@@H](NC(=O)c1ccc(O)c(O)c1Cl)C2 (some centres unmarked) [II-3]						0.125 µg/mL (≈ 0.155 µM)	0.5 µg/mL (≈ 0.619 µM)	0.125 µg/mL (≈ 0.155 µM)	0.5 µg/mL (≈ 0.619 µM)	0.5 µg/mL (≈ 0.619 µM)

The remaining lines, values ahead:

Minimum Inhibitory Concentration (MIC) [1]	Minimum Inhibitory Concentration (MIC) [2]	Minimum Inhibitory Concentration (MIC) [3]	Minimum Inhibitory Concentration (MIC) [4]	Minimum Inhibitory Concentration (MIC) [5]	MIC [1]	MIC [2]	MIC [3]	MIC [4]	MIC [5]	SMILES
					0.125 µg/mL (≈ 0.164 µM)	0.25 µg/mL (≈ 0.328 µM)	0.063 µg/mL (≈ 0.0828 µM)	0.5 µg/mL (≈ 0.657 µM)	2 µg/mL (≈ 2.63 µM)	N#CC[C@H](O/N=C(\C(=O)N[C@@H]1C(=O)N2C(C(=O)O)=C(C[N@@+]34CC[C@@H](C3)N(C(=O)c3ccc(O)c(O)c3Cl)CC4)CS[C@H]12)c1csc(N)n1)C(=O)[O-] [II-1]
0.125 µg/mL	0.5 µg/mL	0.125 µg/mL	0.25 µg/mL	4 µg/mL						C[N+]1(CC2=C(C(=O)[O-])N3C(=O)[C@@H](NC(=O)/C(=N\O[C@@H](CC(=O)[O-])C(=O)[O-])c4nc(N)sc4Cl)[C@H]3SC2)[C@@H]2CC[C@H]1C[C@@H](NC(=O)c1ccc(O)c(O)c1Cl)C2.[Na+].[Na+] (some centres unmarked) [II-5]
0.25 µg/mL	0.5 µg/mL	0.125 µg/mL	0.5 µg/mL	0.5 µg/mL						C[N+]1(CC2=C(C(=O)[O-])N3C(=O)C(NC(=O)C(=NOC(CC(=O)[O-])C(=O)[O-])c4csc(N)n4)C3SC2)C2CCC1CN(C(=O)c1ccc(O)c(O)c1Cl)C2.[Na+].[Na+] (centres unmarked) [II-7]
